Results reported in ChEMBL document CHEMBL1129012, “Similarities and differences in the DNA binding/cleaving specificities and mechanisms of [SalenMn(III)]+ and [TMPPMn(III)]5+” (Bioorg Med Chem Lett, 1996).
Active and inactive are the calls of the source. No cut-off for these calls is given here.

Test system: Nucleic Acid
Test: DNA binding/cleaving affinity was determined; Active
Format: nucleic-acid assay

Activity | Substance
Active | Complex of [SalenMn(III)]+ (Salen=N,N'-ethylenebis(salicylideneaminato))
Active | [TMPPMn(III)] 5+ (TMPP=meso-tetrakis(4-N-methylpyridiniumyl)porphyrinato))
